Patent US5635477A, “Cyclic compounds useful as inhibitors of platelet glycoprotein IIB/IIIA” (The DuPont Merck Pharmaceutical Company, priority 1995, dated 1997)
“Also recorded” adds a separate entry of the source. Like-named read-outs stand apart in the source and are kept apart here. Non-standard residues stand in square brackets, D forms with d. Residues, ends and D or L forms follow the SMILES beside them. NMeR = CN[C@@H](CCCNC(=N)N)C(=O)O; 3Amb = NCc1cccc(C(=O)O)c1; dAbu = CC[C@@H](N)C(=O)O

Experiments:
[1] = target: T1, purified GPIIb/IIIa receptors obtained from human platelets (Homo sapiens, UniProt P05106+P08514); experiment: purified GPIIb/IIIa-biotinylated fibrinogen ELISA; assay type: binding; conditions: competitive; Michaelis-Menten analysis
T1 construct: purified GPIIb/IIIa receptors obtained from human platelets; from tissue; host or cells: human platelets
From the text: (§1) This effect may explain the lyric efficacy of the compounds of the present invention.

[2] = system: activated human platelets; experiment: binding of 3H-labeled Compound A to activated human platelets; conditions: Scatchard analysis
From the text: as §1

[3] = system: femoral artery reocclusion; experiment: femoral artery reocclusion post-thrombolysis; assay type: in vivo, canine (male or female mongrel dogs)
Procedure: Effects of Compound A vs saline, when given to anesthetized canine (male or female mongrel dogs) at 1.0 mg/kg I.V., on the incidence of femoral artery reocclusion post-thrombolysis with streptokinase (250-300×1000 IU/kg) or t-PA. […] Data represents mean ±SEM, n=6 in each group.

[4] = target: agonist-induced platelet aggregation (Homo sapiens, UniProt P05106+P08514); experiment: Platelet Aggregation Assay; assay type: cell-based; conditions: human PRP
Procedure: Blood was collected into 10 ml citrated Vacutainer tubes.

[5] = system: already formed platelet-rich clot; conditions: for lytic effect on already formed platelet-rich clot: varying concentrations
Procedure: Thrombolytic Assay: Venous blood was obtained from the arm of a healthy human donor who was drug-free and aspirin free for at least two weeks prior to blood collection, and placed into 10 ml citrated Vacutainer tubes. The blood was centrifuged for 15 minutes at 1500 ×g at room temperature, and platelet rich plasma (PRP) was removed. To the PRP was then added 1×10^- 3M of the agonist ADP, epinephrine, collagen, arachidonate, serotonin or thrombin, or a mixture thereof, and the PRP incubated for 30 minutes. The PRP was centrifuged for 12 minutes at 2500×g at room temperature. The supernatant was then poured off, and the platelets remaining in the test tube were resuspended in platelet poor plasma (PPP), which served as a plasminogen source. The suspension was then assayed on a Coulter Counter (Coulter Electronics, Inc., Hialeah, Fla.), to determine the platelet count at the zero time point. After obtaining the zero time point, test compounds were added at various concentrations. Test samples were taken at various time points and the platelets were counted using the Coulter Counter. To determine the percent of lysis, the platelet count at a time point subsequent to the addition of the test compound was subtracted from the platelet count at the zero time point, and the resulting number divided by the platelet count at the zero time point. […] For the IC50 evaluation, the test compounds were added at various concentrations, and the percentage of lysis caused by the test compounds was calculated.
Compounds A and B were also tested at varying concentrations using the thrombolytic assay described above (FIG. Ib). […] The clot was formed by incubating platelets with a mixture of agonists (TEAC mixture), which consists of thrombin (0.01 U/ml), epinephrine (250 uM), ADP (250 uM), and collagen (10 ug.ml), for 30 minutes. As a comparison, a linear peptide of sequence arginine-glycine-aspartic acid-serine (RGDS) was also tested in the thrombolytic assay.

[6] = system: thrombus in the femoral artery; experiment: in vivo thrombolysis, modified Lucchesi model; conditions: listed as Compound A
From the text: Data represent mean±SEM. n=3-6 in each group.

[7] = target: T2, platelet GPIIb/IIIa receptor (Homo sapiens, UniProt P05106+P08514); experiment: Platelet-Fibrinogen Binding Assay (125I-fibrinogen, h-GPP); conditions: fibrinogen bound 20 minutes before compound
T2 construct: Human PRP (h-PRP) was applied to a Sepharose column for the purification of platelet fractions; endogenous in cells; host or cells: human gel-purified platelets (h-GPP) from donor platelet-rich plasma
Procedure: Platelet-Fibrinogen Binding Assay: Binding of ^125 I-fibrinogen to platelets was performed as described by Bennett et al. (1983) Proc. Natl. Acad. Sci. USA 80: 2417-2422, with some modifications as described below. Human PRP (h-PRP) was applied to a Sepharose column for the purification of platelet fractions. Aliquots of platelets (5×10^8 cells) along with 1 mM calcium chloride were added to removable 96 well plates prior to the activation of the human gel purified platelets (h-GPP). Activation of the human gel purified platelets was achieved using ADP, collagen, arachidonate, epinephrine, and/or thrombin in the presence of the ligand, ^125 I-fibrinogen. The ^125 I-fibrinogen bound to the activated, platelets was separated from the free form by centrifugation and then counted on a gamma counter.

agonist-induced platelet aggregation, sequence (P08514 32-1039): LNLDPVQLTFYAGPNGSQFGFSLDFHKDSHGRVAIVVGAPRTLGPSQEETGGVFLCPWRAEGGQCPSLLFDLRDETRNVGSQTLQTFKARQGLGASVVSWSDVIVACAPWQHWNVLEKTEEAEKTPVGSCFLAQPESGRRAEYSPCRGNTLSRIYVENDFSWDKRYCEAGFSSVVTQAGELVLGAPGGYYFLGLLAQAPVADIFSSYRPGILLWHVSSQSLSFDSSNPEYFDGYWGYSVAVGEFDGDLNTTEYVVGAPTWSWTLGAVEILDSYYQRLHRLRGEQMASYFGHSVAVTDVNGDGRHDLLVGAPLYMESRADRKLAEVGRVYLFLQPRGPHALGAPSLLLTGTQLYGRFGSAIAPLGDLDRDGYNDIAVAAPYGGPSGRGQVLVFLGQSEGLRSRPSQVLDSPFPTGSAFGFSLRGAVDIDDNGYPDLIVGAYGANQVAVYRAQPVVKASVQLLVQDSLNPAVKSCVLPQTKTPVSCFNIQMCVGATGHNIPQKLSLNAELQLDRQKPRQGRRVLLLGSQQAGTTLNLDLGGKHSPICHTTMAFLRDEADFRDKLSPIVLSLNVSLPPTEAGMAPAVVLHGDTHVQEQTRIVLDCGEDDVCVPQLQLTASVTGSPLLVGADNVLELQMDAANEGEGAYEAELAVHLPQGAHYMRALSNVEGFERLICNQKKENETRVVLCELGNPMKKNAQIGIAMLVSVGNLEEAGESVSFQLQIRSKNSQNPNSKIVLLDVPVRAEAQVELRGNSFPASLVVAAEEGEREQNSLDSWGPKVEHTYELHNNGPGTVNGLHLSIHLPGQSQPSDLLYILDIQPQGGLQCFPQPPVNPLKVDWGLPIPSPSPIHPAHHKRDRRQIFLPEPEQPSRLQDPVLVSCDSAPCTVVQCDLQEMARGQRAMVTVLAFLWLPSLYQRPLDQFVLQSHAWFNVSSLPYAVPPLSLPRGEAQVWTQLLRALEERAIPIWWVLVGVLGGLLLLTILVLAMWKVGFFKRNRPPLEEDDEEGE
agonist-induced platelet aggregation, sequence (P05106 27-788): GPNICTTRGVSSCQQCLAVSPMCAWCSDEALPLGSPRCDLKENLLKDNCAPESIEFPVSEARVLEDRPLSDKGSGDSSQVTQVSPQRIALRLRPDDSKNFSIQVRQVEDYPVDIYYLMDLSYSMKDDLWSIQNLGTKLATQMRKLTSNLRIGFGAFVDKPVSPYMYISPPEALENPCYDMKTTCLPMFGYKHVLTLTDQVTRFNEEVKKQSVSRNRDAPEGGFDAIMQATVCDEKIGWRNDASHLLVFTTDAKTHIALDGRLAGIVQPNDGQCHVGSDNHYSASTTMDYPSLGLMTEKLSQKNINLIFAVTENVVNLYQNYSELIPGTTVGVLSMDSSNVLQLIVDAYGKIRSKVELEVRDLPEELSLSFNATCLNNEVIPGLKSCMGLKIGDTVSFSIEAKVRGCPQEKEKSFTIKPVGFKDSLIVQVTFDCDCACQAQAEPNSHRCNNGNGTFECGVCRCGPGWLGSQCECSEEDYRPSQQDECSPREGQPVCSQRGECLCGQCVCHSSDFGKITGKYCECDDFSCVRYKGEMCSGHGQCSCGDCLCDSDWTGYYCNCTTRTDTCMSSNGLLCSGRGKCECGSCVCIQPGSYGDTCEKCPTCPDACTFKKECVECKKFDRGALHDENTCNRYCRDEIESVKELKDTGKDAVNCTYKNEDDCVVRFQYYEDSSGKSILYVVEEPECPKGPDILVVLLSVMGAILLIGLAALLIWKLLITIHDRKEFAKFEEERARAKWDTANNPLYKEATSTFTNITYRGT
T2 sequence (P08514 32-887 limits assumed): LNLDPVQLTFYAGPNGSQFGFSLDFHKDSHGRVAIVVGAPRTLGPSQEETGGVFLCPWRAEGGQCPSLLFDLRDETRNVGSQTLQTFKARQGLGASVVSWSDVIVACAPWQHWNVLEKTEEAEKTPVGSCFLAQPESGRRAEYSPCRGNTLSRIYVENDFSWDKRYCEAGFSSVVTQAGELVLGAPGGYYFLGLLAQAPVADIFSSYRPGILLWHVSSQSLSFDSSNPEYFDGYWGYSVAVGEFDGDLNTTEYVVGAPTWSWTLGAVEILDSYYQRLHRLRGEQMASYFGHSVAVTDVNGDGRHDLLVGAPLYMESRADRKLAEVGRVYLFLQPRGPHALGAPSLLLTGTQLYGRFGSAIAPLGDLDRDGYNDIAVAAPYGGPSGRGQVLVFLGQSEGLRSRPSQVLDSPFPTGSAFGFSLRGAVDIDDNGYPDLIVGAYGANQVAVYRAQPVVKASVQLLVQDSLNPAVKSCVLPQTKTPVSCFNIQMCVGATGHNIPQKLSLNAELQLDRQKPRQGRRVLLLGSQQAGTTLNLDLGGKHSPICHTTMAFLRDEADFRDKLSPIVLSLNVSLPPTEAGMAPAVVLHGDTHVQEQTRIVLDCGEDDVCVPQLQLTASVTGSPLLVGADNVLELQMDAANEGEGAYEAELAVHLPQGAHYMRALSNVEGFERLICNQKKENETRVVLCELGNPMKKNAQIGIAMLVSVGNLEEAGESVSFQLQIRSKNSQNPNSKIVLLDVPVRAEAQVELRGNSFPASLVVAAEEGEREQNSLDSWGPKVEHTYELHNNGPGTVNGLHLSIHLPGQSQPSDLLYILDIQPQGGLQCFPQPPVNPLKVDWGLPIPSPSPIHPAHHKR
T2 sequence (P08514 891-1039 partner limits assumed): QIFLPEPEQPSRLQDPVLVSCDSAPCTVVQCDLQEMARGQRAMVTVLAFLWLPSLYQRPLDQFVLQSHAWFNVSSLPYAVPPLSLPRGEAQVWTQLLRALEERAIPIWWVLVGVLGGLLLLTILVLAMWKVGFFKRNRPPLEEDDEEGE
T2 sequence (P05106 27-788): as the sequence (P05106 27-788) above
T1 sequence (P08514 32-887 limits assumed): as the sequence (P08514 32-887 limits assumed) above
T1 sequence (P08514 891-1039 partner limits assumed): as the sequence (P08514 891-1039 partner limits assumed) above
T1 sequence (P05106 27-788): as the sequence (P05106 27-788) above

**Q.** Which Ki [1] does the source give for CC[C@H]1NC(=O)c2cccc(c2)CNC(=O)[C@H](CC(=O)O)NC(=O)CNC(=O)[C@H](CCCN=C(N)N)N(C)C1=O [Example 3, cyclo-(D-Abu-NMeArg-Gly-Asp-Mamb)] (cyclo([NMeR]GD[3Amb][dAbu])) here?
**A.** 0.4 nM

**Q.** Which results are given for CC[C@H]1NC(=O)c2cccc(c2)CNC(=O)[C@H](CC(=O)O)NC(=O)CNC(=O)[C@H](CCCNC(=N)N)N(C)C1=O [Example 3, cyclo-(D-Abu-NMeArg-Gly-Asp-Mamb)] (cyclo([NMeR]GD[3Amb][dAbu]))?
**A.** Kd [2]: 0.1 nM; period without reocclusion ([3]; 1.0 mg/kg I.V., post-thrombolysis): > 240 min; prevention of reocclusion ([3]; 1.0 mg/kg I.V., post-thrombolysis with streptokinase or t-PA): 100%; reocclusion following SK or t-PA thrombolysis ([3]; dog, in vivo): virtually no reocclusion; deaggregation of platelets ([4]; added after initiation of aggregation): deaggregate platelets after the initiation of aggregation; IC50 ([4]; agonist-induced aggregation): < 1000 nM; lysis percentage ([5]; 0.001 mM, platelet stimulation 1x10^-3 M ADP): ≥ 70%; lytic effect on already formed platelet-rich clot ([5]; listed as A): significant lyric efficacy of pre-formed platelet rich-clot; lytic effect on already formed platelet-rich clot ([5]; listed as Compound A): significant lytic effect on the clot; in vivo thrombolytic efficacy with streptokinase ([6]; 1 mg/kg I.V. plus sub-optimum streptokinase (75 KU)): significant synergistic effect in fully lysing the thrombus; also recorded: increase in in vivo thrombolytic efficacy while allowing a significantly lower dose of streptokinase; in vivo thrombolytic efficacy alone ([6]; 1 mg/kg I.V.): significant lysis of an already formed thrombus in the femoral artery; also recorded: good in vivo thrombolytic efficacy; displacement of 125I-fibrinogen bound to activated platelets [7]: displace ^125 I-fibrinogen bound to activated platelets
